Tests used:
[1] = tested on: Human immunodeficiency virus 1; test: Antiviral activity against HIV1 3B in human MT4 cells in presence of 50% normal human serum; assay type: functional; conditions: Human immunodeficiency virus 1, 3B, MT4; read-out: CIC95
[2] = tested on: Human immunodeficiency virus 1; test: Antiviral activity against HIV1 3B in human MT4 cells in presence of 10% heat-inactivated fetal bovine serum; conditions: Human immunodeficiency virus 1, 3B, read-out: CIC95
[3] = tested on: Human immunodeficiency virus 1; test: Antiviral activity against HIV1 with integrase T66I/M154 mutation by single cycle infectivity assay in presence of 10%FBS; assay type: functional
[4] = tested on: Human immunodeficiency virus 1; test: Antiviral activity against HIV1 with integrase T66I/S153Y mutation by single cycle infectivity assay in presence of 10%FBS; assay type: functional
[5] = tested on: Human immunodeficiency virus 1; test: Antiviral activity against HIV1 with integrase N155S mutation by single cycle infectivity assay in presence of 10%FBS; assay type: functional
[6] = tested on: Human immunodeficiency virus 1; test: Antiviral activity against HIV1 with integrase T125K/F121Y mutation by single cycle infectivity assay in presence of 10%FBS; assay type: functional
[7] = tested on: Human immunodeficiency virus 1; test: Antiviral activity against HIV1 with integrase T66I/L74M/V151I mutation by single cycle infectivity assay in presence of 10%FBS; assay type: functional
[8] = Cmax in po dosed Sprague-Dawley rat; assay type: ADME, organism-based; parameters: route oral; conditions: in vivo
[9] = AUC in Sprague-Dawley rat at 3 mg/kg, po; assay type: ADME, organism-based; parameters: dose 3 mg/kg, route oral; conditions: plasma
[10] = Protein binding in Sprague-Dawley rat plasma; assay type: ADME, cell-free; conditions: read-out: PPB (converted)
[11] = Protein binding in dog plasma; assay type: ADME, cell-free, Canis lupus familiaris; conditions: read-out: PPB (converted)
[12] = Protein binding in rhesus monkey plasma; assay type: ADME, cell-free, Macaca mulatta; conditions: read-out: PPB (converted)
[13] = Protein binding in human plasma; assay type: ADME, cell-free; conditions: read-out: PPB (converted)
[14] = target: Human immunodeficiency virus type 1 integrase (Human immunodeficiency virus 1, UniProt Q7ZJM1); test: Inhibition of HIV1 recombinant integrase strand transfer activity
Chain of Human immunodeficiency virus type 1 integrase (Q7ZJM1 whole entry): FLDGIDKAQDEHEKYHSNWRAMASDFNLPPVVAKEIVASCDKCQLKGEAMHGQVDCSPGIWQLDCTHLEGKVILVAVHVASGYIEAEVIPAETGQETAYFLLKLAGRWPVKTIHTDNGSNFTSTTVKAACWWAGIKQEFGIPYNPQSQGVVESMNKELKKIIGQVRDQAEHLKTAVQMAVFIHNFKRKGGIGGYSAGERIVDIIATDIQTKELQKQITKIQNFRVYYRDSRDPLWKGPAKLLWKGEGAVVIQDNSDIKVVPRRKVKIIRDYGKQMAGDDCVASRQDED

[15] = Oral bioavailability in po dosed Sprague-Dawley rat; assay type: ADME, organism-based; conditions: in vivo
[16] = Oral bioavailability in po dosed dog; assay type: ADME, organism-based, Canis lupus familiaris; conditions: in vivo
[17] = Cmax in Sprague-Dawley rat at 3 mg/kg, po; assay type: ADME, organism-based; parameters: dose 3 mg/kg, route oral; conditions: in vivo
[18] = Cmax in dog at 10 mg/kg, po; assay type: ADME, organism-based, Canis lupus familiaris; parameters: dose 10 mg/kg, route oral; conditions: in vivo
[19] = Terminal half life in po dosed Sprague-Dawley rat; assay type: ADME, organism-based; conditions: in vivo
[20] = Terminal half life in dog at 10 mg/kg, po; assay type: ADME, organism-based, Canis lupus familiaris; parameters: dose 10 mg/kg, route oral; conditions: in vivo, read-out: beta t1/2 (converted)
[21] = AUC in dog at 10 mg/kg, po; assay type: ADME, organism-based, Canis lupus familiaris; parameters: dose 10 mg/kg, route oral; conditions: plasma
[22] = Plasma concentration in dog at 10 mg/kg, po after 12 hrs; assay type: ADME, organism-based, Canis lupus familiaris; parameters: dose 10 mg/kg, route oral

SMILES | IC95 [1] [nM] | IC95 [2] [nM] | IC50 [14] [nM] | further results
CN(C)C(C)(C)c1nc(O)c(O)c(C(=O)NCc2ccc(F)cc2)n1 | 78 | 60 | – | –
CN1CCOCC1c1nc(C(=O)NCc2ccc(F)cc2)c(O)c(=O)n1C (stereo not drawn) | 100 | 60 | – | –
O=C(NCc1ccc(F)cc1)c1nc(N2CCCCS2(=O)=O)c2cccnc2c1O | – | – | – | Activity [3]: 3%; Activity [4]: 1.3%; Activity [5]: 10%; Activity [6]: 12%; Activity [7]: 9%
Cc1nnc(C(=O)NC(C)(C)c2nc(C(=O)NCc3ccc(F)cc3)c([O-])c(=O)n2C)o1.[Na+] | – | – | – | Cmax [8]: 1000 nM; AUC [9]: 1.4 µM·h; fraction unbound [10]: 0.74; fraction unbound [11]: 0.71; fraction unbound [12]: 0.85; fraction unbound [13]: 0.83
Cn1c(C(C)(C)NC(=O)c2cccnn2)nc(C(=O)NCc2ccc(F)cc2)c(O)c1=O | 500 | 62 | 15 | –
Cn1c(C(C)(C)NC(=O)c2cnco2)nc(C(=O)NCc2ccc(F)cc2)c(O)c1=O | 500 | 500 | 7 | –
Cn1c(C(C)(C)NC(=O)c2cscn2)nc(C(=O)NCc2ccc(F)cc2)c(O)c1=O | 312 | < 78 | 8 | –
CN(C)C(=O)C(=O)NC(C)(C)c1nc(C(=O)NCc2ccc(F)c(Cl)c2)c(O)c(=O)n1C | 130 | 31 | 9 | –
Cn1c(C(C)(C)NC(=O)c2ccccn2)nc(C(=O)NCc2ccc(F)cc2)c(O)c1=O | 1000 | 125 | 20 | –
COc1cccc(CNC(=O)c2nc(C(C)(C)NC(=O)C(=O)N(C)C)n(C)c(=O)c2O)c1OC | > 1000 | 1000 | 21 | –
Cn1c(C(C)(C)NC(=O)c2c[nH]cn2)nc(C(=O)NCc2ccc(F)cc2)c(O)c1=O | 250 | 250 | 6 | –
CN(C)C(=O)C(=O)NC(C)(C)c1nc(C(=O)NCc2ccc(F)cc2)c([O-])c(=O)n1C.[Na+] | 125 | – | – | bioavailability [15]: 36%; bioavailability [16]: 93%; Cmax [17]: 4100 nM; Cmax [18]: 32000 nM; half-life [19]: 2.3 h; half-life [20]: 11.9 h; AUC [9]: 2.2 µM·h; AUC [21]: 47 µM·h; fraction unbound [10]: 0.65; fraction unbound [11]: 0.62; fraction unbound [12]: 0.82; fraction unbound [13]: 0.72; concentration at 12 h [22]: 246 nM
Cn1c(C(C)(C)N2CCOCC2)nc(C(=O)NCc2ccc(F)cc2)c(O)c1=O | 500 | 65 | 3 | –
CN(C)C1(c2nc(C(=O)NCc3ccc(F)cc3)c(O)c(=O)n2C)CCOCC1 | 1000 | 250 | 2 | –
CC(=O)NC(C)(C)c1nc(C(=O)NCc2ccc(F)cc2)c(O)c(=O)n1C | 400 | 310 | 7 | –
CN1CCN(C(=O)C(=O)NC(C)(C)c2nc(C(=O)NCc3ccc(F)cc3)c(O)c(=O)n2C)CC1 | 250 | 125 | 26 | –
CNC(=O)c1nc(C(C)(C)NC(=O)C(=O)N(C)C)n(C)c(=O)c1O | > 10000 | > 10000 | > 5000 | –
CN(C)C(C)(C)c1nc(C(=O)NCc2ccc(F)cc2)c(O)c(=O)n1C | > 1000 | 1000 | 230 | –
CN(C)S(=O)(=O)NC(C)(C)c1nc(C(=O)NCc2ccc(F)cc2)c(O)c(=O)n1C | 500 | 125 | 12 | –
CN(C)C(=O)C(=O)N(C)C(C)(C)c1nc(C(=O)NCc2ccc(F)cc2)c(O)c(=O)n1C | 125 | 62 | 15 | –
COC(=O)C(=O)NC(C)(C)c1nc(C(=O)NCc2ccc(F)cc2)c(O)c(=O)n1C | > 1000 | 1000 | 15 | –
CN(C)C(=O)NC(C)(C)c1nc(C(=O)NCc2ccc(F)cc2)c(O)c(=O)n1C | > 1000 | 1000 | 18 | –
Cn1c(C(C)(C)NC(=O)C(=O)N2CCOCC2)nc(C(=O)NCc2ccc(F)cc2)c(O)c1=O | 125 | 125 | 20 | –
Cc1nnc(C(=O)NC(C)(C)c2nc(C(=O)NCc3ccc(F)cc3)c(O)c(=O)n2C)[nH]1 | 1000 | 250 | 4 | –
CN(C)C(=O)C(=O)NC(C)(C)c1nc(C(=O)NCc2ccc(F)cc2S(C)(=O)=O)c(O)c(=O)n1C | 125 | 125 | 4 | –
Cn1c(C(C)(C)NC(=O)c2ncccn2)nc(C(=O)NCc2ccc(F)cc2)c(O)c1=O | 50 | 20 | 7 | –
Cn1c(C(C)(C)NC(=O)C(=O)O)nc(C(=O)NCc2ccc(F)cc2)c(O)c1=O | 1000 | 250 | 4 | –
Cn1c(C(C)(C)NS(C)(=O)=O)nc(C(=O)NCc2ccc(F)cc2)c(O)c1=O | 1000 | 62 | 8 | –
O=C(/C=C(\O)c1nc[nH]n1)c1ccc(Cc2ccc(F)cc2)o1 [S-1360] | – | – | – | Activity [3]: 20%; Activity [4]: 50%; Activity [5]: >50%; Activity [6]: 50%; Activity [7]: 100%

Source: ChEMBL document CHEMBL1140081 (J Med Chem, 2008)
